Where “and” joins values, the source holds several entries; their conditions need not be identical. Equal entries are not always repeated. Where two headings read alike, the source gives them in different places. Marks after values point to notes of the source that are not given here.
Legend:
[1] = target: T1, MtrR (Neisseria gonorrhoeae, UniProt P39897); test: Isothermal titration calorimetry, wild-type MtrR with bile salts; assay type: binding; settings: ITC; for Stoichiometry N, WT MtrR: bile salt per MtrR
T1 construct: A codon optimized gene of MtrR was synthesized by GenScript and cloned into the; hexahistidine tag with TEV protease site (N, cleaved yes); made in house
T1 sequence (P39897 whole entry): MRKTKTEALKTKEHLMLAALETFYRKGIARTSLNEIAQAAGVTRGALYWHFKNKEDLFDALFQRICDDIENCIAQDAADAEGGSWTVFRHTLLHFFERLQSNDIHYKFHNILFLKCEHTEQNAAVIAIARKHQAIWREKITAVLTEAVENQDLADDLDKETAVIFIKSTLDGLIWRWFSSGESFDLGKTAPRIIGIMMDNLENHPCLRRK
Method: (§1) Purified MtrR was dialyzed extensively against buffer containing 20 mM Tris [pH 8.0], 200 mM NaCl, 10% glycerol, and 1 mM TCEP overnight at 4°C. The stock solutions and the necessary dilutions of the bile salts were prepared using this dialysis buffer. Titrations with 20 μM MtrR in the cell and 250 μM ligand in the syringe were performed using a VP-ITC microcalorimeter (Microcal Inc.). All measurements were conducted at 25°C with a stirring speed of 200 rpm. After subtraction of germane blank data, the titration data were analyzed using the program ORIGIN 5.0.
(§2) Protein purification for Isothermal Titration Calorimetry experiments and mutant […]
(§3) A codon optimized gene of MtrR was synthesized by GenScript and cloned into the pMCSG7 vector in- frame with the N-terminal Hexa- histidine tag and tobacco etch virus (TEV) protease cleavage site. This construct was used as the template for site- directed mutagenesis and to generate wild- type data in supplemental f igures 5-6 and Isothermal Titration Calorimetry data. This protein was overexpressed and purified as described in the “Materials and Methods” of the document, except the he xa -histidine tag MtrR was cleaved by TEV protease following NiNTA affinity chromatography. Cleaved MtrR was purified from tagged MtrR and cleaved hexa- histidine tag by Ni- NTA aff inity chromatography and then further purified by size exclusion chromatography (S200).

[2] = target: T2, MtrR(R176E)-mtrCDE operator DNA (Neisseria gonorrhoeae, UniProt P39897, R176E); test: Electrophoretic mobility shift assay, induction of MtrR(R176E); assay type: biochemical; settings: EMSA
T2 construct: hexahistidine tag with TEV protease site (N, cleaved yes); made in house; host or cells: Rosetta Gami B(DE3) pLysS cells (Novagen)
T2 sequence (P39897 whole entry R176E): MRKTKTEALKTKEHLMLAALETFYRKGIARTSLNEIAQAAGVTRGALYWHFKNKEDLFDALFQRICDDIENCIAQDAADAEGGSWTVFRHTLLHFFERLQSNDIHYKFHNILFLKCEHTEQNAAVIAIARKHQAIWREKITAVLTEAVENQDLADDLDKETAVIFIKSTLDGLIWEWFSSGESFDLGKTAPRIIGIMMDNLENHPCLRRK
Text: (§4) We hypothesized that the bile salts chenodeoxycholate and taurodeoxycholate occupied the binding pocket in which the CAPS electron density was observed. In our crystal structure, residues R176′ and W136 appear to be potentially important for H bonding and π stacking, respectively, with the ligand (see Fig. S4). Therefore, we generated and purified the single-site mutant MtrR proteins, MtrR(R176A), MtrR(R176E), and MtrR(W136L), to determine the importance of these residues for ligand binding (see the supplemental material) ([40]). First, we determined the capabilities of these single mutants to bind DNA with our FP-based assay. All the mutants were capable of binding the mtrCDE target sequence, with dissociation constants in the nanomolar range and all within 5-fold of the wild-type protein (see Fig. S7A). […] At higher concentrations (5 to 10 mM), taurodeoxycholate induced all three mutants. […]
(§5) Complementary oligodeoxynucleotides containing the MtrR binding site from the mtrC promoter (top strand, 5′-[…]-3′; an unusual pseudo-direct repeat is underlined) were annealed by heating an equimolar mixture of the top and bottom strands at 95°C for 5 min, followed by slow cooling to room temperature. […] The gels were stained with ethidium bromide and visualized and analyzed with an Alpha Innotech gel documentation instrument. The intensities of free DNA were measured with ImageJII ([61], [62]).

[3] = target: T3, WT MtrR (Neisseria gonorrhoeae, UniProt P39897); test: ITC ligand competition, WT MtrR presaturated with one bile salt and titrated with the second; assay type: binding; settings: WT MtrR (20 μM) preincubated with 20 μM taurodeoxycholate overnight at 4°C
T3 construct: A codon optimized gene of MtrR was synthesized by GenScript and cloned into the; hexahistidine tag with TEV protease site (N, cleaved yes); made in house
T3 sequence (P39897 whole entry): as the sequence (P39897 whole entry) above
Method: (A to D) Isothermal titration calorimetry thermograms and resulting binding isotherms for binding reactions between MtrR(R176E) and chenodeoxycholate (A) and taurodeoxycholate (B), as well as between MtrR(W136L) and chenodeoxycholate (C) and taurodeoxycholate (D). (E and F) Isothermal titration calorimetry thermograms and resulting binding isotherms for ligand competition assays. (E) WT MtrR (20 μM) was incubated with 20 μM taurodeoxycholate overnight at 4°C; chenodeoxycholate was titrated into MtrR-TDCA. (F) WT MtrR (20 μM) was incubated with 20 μM chenodeoxycholate overnight at 4°C; taurodeoxycholate was titrated into MtrR-CDCA.
This finding supports the idea that these ligands occupy different binding sites on MtrR and that the binding of taurodeoxycholate occludes, either directly or allosterically, the binding site of chenodeoxycholate. With our current data, we cannot determine the exact binding location of taurodeoxycholate. […]
Purified MtrR was dialyzed extensively against buffer containing 20 mM Tris [pH 8.0], 200 mM NaCl, 10% glycerol, and 1 mM TCEP overnight at 4°C. […] After subtraction of germane blank data, the titration data were analyzed using the program ORIGIN 5.0.

[4] = target: T4, MtrR(R176A)-mtrCDE operator DNA (Neisseria gonorrhoeae, UniProt P39897, R176A); test: Electrophoretic mobility shift assay, induction of MtrR(R176A); assay type: biochemical; settings: EMSA
T4 construct: hexahistidine tag with TEV protease site (N, cleaved yes); made in house; host or cells: Rosetta Gami B(DE3) pLysS cells (Novagen)
T4 sequence (P39897 whole entry R176A): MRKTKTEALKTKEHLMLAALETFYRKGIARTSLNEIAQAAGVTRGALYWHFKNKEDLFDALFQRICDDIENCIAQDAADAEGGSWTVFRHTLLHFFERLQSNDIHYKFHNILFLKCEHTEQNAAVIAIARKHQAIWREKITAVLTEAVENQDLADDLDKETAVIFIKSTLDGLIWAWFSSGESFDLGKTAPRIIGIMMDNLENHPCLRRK
Text: as §4, §5

[5] = target: T5, MtrR-DNA complex (Neisseria gonorrhoeae, UniProt P39897); assay type: biochemical; settings: EMSA, wild-type MtrR, mtrC promoter oligoduplex
T5 construct: nearly all 210 residues of each protomer observed, with the exception of residues 1 through 7; hexahistidine tag (thrombin-cleavable) (cleaved yes); made in house
T5 sequence (P39897 whole entry, one chain of several): as the sequence (P39897 whole entry) above
Method: To test the hypothesis that these bile salts directly bind to MtrR and potentially derepress gene expression by interfering with the DNA binding activity of MtrR, MtrR-mtrC promoter interactions were tested in the presence and absence of different concentrations of several bile salts. […] It is important to note that this is a competition assay that, due to its experimental design, requires the use of 3 μM DNA and 4 to 10 μM MtrR dimer. Consequently, this means that ∼99.9% of all DNA is MtrR bound.
Complementary oligodeoxynucleotides containing the MtrR binding site from the mtrC promoter (top strand, 5′-[sequence]-3′; an unusual pseudo-direct repeat is underlined) were annealed by heating an equimolar mixture of the top and bottom strands at 95°C for 5 min, followed by slow cooling to room temperature. Binding reactions were carried out in 20-μl volumes of binding buffer (20 mM Tris [pH 8.0], 200 mM NaCl, 10% glycerol, and 1 mM TCEP) containing 1 μg oligoduplex, 1 μg poly(dI-dC), and 4 to 10 μg MtrR. After a 20-minute incubation at room temperature, the preformed complex was incubated with or without various concentrations of selected bile salts at room temperature for an additional 10 min. […] The gels were stained with ethidium bromide and visualized and analyzed with an Alpha Innotech gel documentation instrument. The intensities of free DNA were measured with ImageJII ([61], [62]).

[6] = test system: mtrCp-lacZ in JF1 (FA19 ΔmtrR); assay type: cell-based, Neisseria gonorrhoeae
Text: (§6) To determine if sublethal concentrations of bile salts could relieve MtrR-mediated repression of mtrC (and, by inference, the mtrCDE operon), a translational fusion of the promoter region of mtrC to lacZ was used. This fusion system was made in the wild-type (FA19) background ([41]) and cloned into mtrR deletion mutant strain JF1. Using the mtrCp-lacZ fusion, the β-galactosidase activity of the strains grown in the presence or absence of the bile salt chenodeoxycholate, taurodeoxycholate, or glycocholate was measured. The β-galactosidase levels were determined from strains grown overnight on GC agar supplemented with the bile salt at concentrations 4-fold below their specific MICs to ensure that the concentration of each bile salt was in the same biological range (the bile salt concentrations are listed in Table 2).
N. gonorrhoeae strains FA19 (wild type) and JF1 (FA19 ΔmtrR) containing a translational mtrCp-lacZ fusion with the proAB locus were used to assess the ability of bile salts to induce mtrC expression; the construction of these strains has been described previously ([41]). The MIC of bile salts for each strain used in the β-galactosidase assay was determined using a 2-fold agar dilution method ([32]). […]

[7] = target: T6, MtrR(R176E) (Neisseria gonorrhoeae, UniProt P39897, R176E); test: Isothermal titration calorimetry, MtrR(R176E) with bile salts; assay type: binding; settings: ITC
T6 construct: hexahistidine tag with TEV protease site (N, cleaved yes); made in house; host or cells: Rosetta Gami B(DE3) pLysS cells (Novagen)
T6 sequence (P39897 whole entry R176E): as the sequence (P39897 whole entry R176E) above
Method: as §1, §2, §3
Site-directed mutagenesis
To introduce the mutations W 136L, R176A, and R176E, we performed DpnI mediated site-directed mutagenesis. Complementary oligonucleotides containing the desired mutations were obtained from IDT. PCR reactions containing two complementary primers, template DNA, Pfu DNA polymerase buffer, dNTP, and Pfu DNA polymerase were incubated at 95 °C for 30 seconds followed by 18 cycles of 95 °C for […], 55 °C for one minute, and 68 °C for 11 minutes. After cooling the reactions to 4 °C, 10 units of Dpn1 (NEB) was added to each 50 µl reaction and incubated at 37 °C for 3 hours.
The resulting plasmids were used to transform DH5α (Thermo Fisher) cells for plasmid prep. After checking the sequences to ensure the mutations had been incorporated, these plasmids were overexpressed in Rosetta Gami B(DE3) pLysS cells (Novagen)

[8] = target: T7, MtrR-mtrCDE promoter (Neisseria gonorrhoeae, UniProt P39897); assay type: biochemical; settings: for Fold increase in Kd: versus no bile salt
T7 construct: nearly all 210 residues of each protomer observed, with the exception of residues 1 through 7; hexahistidine tag (thrombin-cleavable) (cleaved yes); made in house
T7 sequence (P39897 whole entry): as the sequence (P39897 whole entry) above
Method: Thus, to rule out any effect of alkaline pH on MtrR-DNA interactions, we buffered the CAPS used in the FP assay to pH 8.0 before testing its effect on DNA binding.
Fluorescence polarization-based DNA binding experiments were performed with a Panvera Beacon 2000 fluorescence polarization system (Invitrogen) utilizing 5′-fluorescein-labeled DNA. Polarization (P) of such 5′-labeled DNA increases as a function of protein binding, and equilibrium dissociation constants are determined by curve fitting the values of millipolarization (P × 10^−3) units against the protein concentration. To determine the effects of various ligands on MtrR-DNA binding, 1 nM 5′-fluoresceinated oligodeoxynucleotide duplexes containing the mtrC operator site in 1 ml binding buffer (20 mM Tris HCl [pH 8.0], 100 mM NaCl, and 2.5% glycerol) were titrated against increasing concentrations of purified MtrR in the presence or absence of the indicated concentrations of bile salt, and the resulting changes in polarization were measured. All the samples were excited at 490 nm, and their polarized emissions were measured at 530 nm. All the data were plotted using Kaleidagraph (Synergy Software) and Prism (GraphPad Software), and the resulting plots were fitted to the following equation: P = {(Pbound − Pfree)[protein]/(KD + [protein])} + Pfree, where P is the polarization measured at a given protein concentration, Pfree is the initial polarization of the free ligand, Pbound is the maximum polarization of specifically bound ligand, KD is the equilibrium dissociation constant, and [protein] is the protein concentration. Nonlinear least-squares analysis was used to determine Pbound, and Kd. The reported binding constants are the average values from at least three independent experimental measurements.

[9] = target: T8, MtrR(W136L)-mtrCDE operator DNA (Neisseria gonorrhoeae, UniProt P39897, W136L); test: Electrophoretic mobility shift assay, induction of MtrR(W136L); assay type: biochemical; settings: EMSA
T8 construct: hexahistidine tag with TEV protease site (N, cleaved yes); made in house; host or cells: Rosetta Gami B(DE3) pLysS cells (Novagen)
T8 sequence (P39897 whole entry W136L): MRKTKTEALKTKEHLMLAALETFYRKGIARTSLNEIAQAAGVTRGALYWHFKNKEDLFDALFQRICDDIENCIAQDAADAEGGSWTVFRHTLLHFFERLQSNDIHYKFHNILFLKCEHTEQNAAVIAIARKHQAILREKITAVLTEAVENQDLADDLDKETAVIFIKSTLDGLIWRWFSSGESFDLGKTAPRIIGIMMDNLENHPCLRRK
Text: as §4, §5

[10] = target: T9, MtrR(W136L) (Neisseria gonorrhoeae, UniProt P39897, W136L); test: Isothermal titration calorimetry, MtrR(W136L) with bile salts; assay type: binding; settings: ITC
T9 construct: hexahistidine tag with TEV protease site (N, cleaved yes); made in house; host or cells: Rosetta Gami B(DE3) pLysS cells (Novagen)
T9 sequence (P39897 whole entry W136L): as above
Method: as §1, §2
A codon optimized gene of MtrR was synthesized by GenScript and cloned into the pMCSG7 vector in- frame with the N-terminal Hexa- histidine tag and tobacco etch virus (TEV) protease cleavage site. This construct was used as the template for site- directed mutagenesis and to generate wild- type data in supplemental f igures 5-6 and Isothermal Titration Calorimetry data. This protein was overexpressed and purified as described in the “Materials and Methods” of the document, except the he xa -histidine tag MtrR was cleaved by TEV protease following NiNTA affinity chromatography. […]

[11] = test system: mtrCp-lacZ in FA19 (wild type); test: β-Galactosidase assay of mtrCp-lacZ fusion, strain FA19; assay type: cell-based, Neisseria gonorrhoeae
Text: as §6
N. gonorrhoeae strains FA19 (wild type) and JF1 (FA19 ΔmtrR) containing a translational mtrCp-lacZ fusion with the proAB locus were used to assess the ability of bile salts to induce mtrC expression; the construction of these strains has been described previously ([41]). The MIC of bile salts for each strain used in the β-galactosidase assay was determined using a 2-fold agar dilution method ([32]). Gonococci were grown overnight on GC agar (Difco Laboratories) supplemented with a bile salt (glycocholate, chenodeoxycholate, or taurodeoxycholate) at concentrations that were 4-fold below the MIC. After overnight growth at 37°C under 3.8% (vol/vol) CO2, the bacteria were scraped from the agar plate, resuspended in 1 ml phosphate-buffered saline (pH 7.4), and lysed by freeze-thawing three times, after which the cell debris was pelleted by centrifugation. The lysate was then used to determine β-galactosidase levels as described previously ([63]). All experiments were performed in triplicate with at least three biological replicates conducted on different days.

## C[C@H](CCC(=O)O)[C@H]1CC[C@H]2[C@@H]3[C@H](O)C[C@@H]4C[C@H](O)CC[C@]4(C)[C@H]3CC[C@]12C [Chenodeoxycholate, chenodeoxycholate]
[1]
  ΔH, WT MtrR: -17.27 ± 3.09 kJ/mol
  ΔS, WT MtrR: 10.85 ± 3.13 cal/mol/deg
  Stoichiometry N, WT MtrR: 0.444 ± 0.097
[1]; 25°C, 20 μM MtrR in cell, 250 μM ligand in syringe, read-out: Kd of bile salt binding to WT MtrR
  Kd: 4.4 µM and ~5 µM
[1]; listed as CDCA
  Stoichiometry N, WT MtrR: ~ 0.5
[1]; listed as chenodeoxycholate
  Stoichiometry N, WT MtrR: one molecule of bile salt per MtrR dimer
[2]
  Concentration that induces (dissociates from mtrCDE operator DNA) MtrR(R176E): did not induce either MtrR(R176A) or MtrR(R176E) to the same degree as the wild-type protein
[3]
  Binding, ligand competition: chenodeoxycholate titrated into MtrR-TDCA: minimal binding
[4]
  Concentration that induces (dissociates from mtrCDE operator DNA) MtrR(R176A): did not induce either MtrR(R176A) or MtrR(R176E) to the same degree as the wild-type protein
[5]
  Concentration that disrupts the preformed MtrR-DNA complex: 2 to 3 mM
[6]
  Fold increase of mtrCp-lacZ activity: 1.37 (0.2)^b
[7]
  Stoichiometry N, MtrR(R176E): 0.521 ± 0.038
  ΔH, MtrR(R176E): -54.304 ± 34.43 kJ/mol
  ΔS, MtrR(R176E): -23.00 ± 31.48 cal/mol/deg
[7]; read-out: Kd of bile salt binding to MtrR(R176E)
  Kd: 97 ± 64 µM
[8]; 1 mM bile salt
  Fold increase in Kd: 8.3
[8]; 1 mM bile salt, listed as chenodeoxycholate
  Fold increase in Kd: 8- to 28
[8]; 5 mM bile salt
  Fold increase in Kd: No binding
[8]; 5 mM bile salt, no bile salt 18 ± 3 nM
  Kd of MtrR-mtrCDE promoter binding in the presence of bile salt: no DNA binding by MtrR was detected
[9]
  Concentration that induces (dissociates from mtrCDE operator DNA) MtrR(W136L): 5 to 10 mM
[10]
  Kd of bile salt binding to MtrR(W136L): No binding
[11]; FA19 compared with ΔmtrR strain JF1, sublethal bile salt
  MtrR-dependent derepression of the mtrC promoter: clearly evident
[11]; strain FA19, grown on GC agar with bile salt 4-fold below MIC versus normal agar, mM concentration in parentheses in the cell
  Fold increase of mtrCp-lacZ activity: 5.09 (0.2)
